Structures are written as SMILES.

The record followed here is ChEMBL document CHEMBL1152091, “The synthesis and identification of 4,6-diaminoquinoline derivatives as potent immunostimulants” (1992).

This assay deals with Mus musculus. Nature of the assay: Immunostimulant activity after subcutaneous administration using mouse protection assay. The assay is classed as functional. The note with it: sc, read-out: MED.
With `Nc1ccc2nc(-c3ccccc3)cc(NC3CCCCC3)c2c1`, the minimal effective dose is > 100 mg/kg.

In the case of `Nc1ccc2nc(-c3ccccc3)cc(Nc3ccc(F)c(F)c3)c2c1`, the minimal effective dose amounted to 6.25 mg/kg.

For `CC(=O)Nc1ccc2nc(C)cc(Nc3ccc(OCC4CCCCC4)cc3)c2c1`, the minimal effective dose came to 12.5 mg/kg.

Consider `Cc1cc(Nc2ccc(OCC3CCCCC3)cc2)c2cc(N)ccc2n1`, for which the minimal effective dose was 6.25 mg/kg.

`Nc1ccc2nccc(Nc3ccc(OCC4CCCCC4)cc3)c2c1`: the minimal effective dose was found to be 12.5 mg/kg.

Consider `Nc1ccc2nc(-c3ccccc3)cc(Nc3ccc(OCC4CCCCC4)cc3)c2c1`, for which the minimal effective dose stood at 5.6 mg/kg.

Consider `Cc1cc(Nc2ccc(OCC3CCCCC3)cc2)c2cc(NC(N)=O)ccc2n1`, for which the minimal effective dose was found to be 50 mg/kg.

As to `CCOc1ccc(Nc2ccnc3ccc(N)cc23)cc1`, the minimal effective dose turned out to be 6.25 mg/kg.

`Cc1cc(Nc2ccc(F)c(F)c2)c2cc(N)ccc2n1`: the minimal effective dose amounted to 12.5 mg/kg.

Take `CC(=O)Nc1ccc2nccc(Nc3ccc(OCC4CCCCC4)cc3)c2c1`: the minimal effective dose was 6.25 mg/kg.

Regarding `CS(=O)(=O)Nc1ccc2nc(-c3ccccc3)cc(Nc3ccc(OCC4CCCCC4)cc3)c2c1`, the minimal effective dose was found to be 12.5 mg/kg.

Regarding `O=[N+]([O-])c1ccc2nc(-c3ccccc3)cc(Nc3ccc(Cl)cc3)c2c1`, the minimal effective dose is > 50 mg/kg.

`Nc1ccc2nc(-c3ccccc3)cc(Nc3ccc(Cl)cc3)c2c1`: the minimal effective dose was determined as 5.6 mg/kg.

Turning to `CCCCOc1ccc(Nc2ccnc3ccc(N)cc23)cc1`, the minimal effective dose was 25 mg/kg.

As to `O=[N+]([O-])c1ccc2nc(-c3ccccc3)cc(Nc3ccc(OCC4CCCCC4)cc3)c2c1`, the minimal effective dose is > 50 mg/kg.

For the molecule `NC(=O)Nc1ccc2nc(-c3ccccc3)cc(Nc3ccc(OCC4CCCCC4)cc3)c2c1`, the minimal effective dose was 6.25 mg/kg.
